ChEMBL document CHEMBL1201862, “PubChem BioAssay data set” (2004)
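Assay format: 96-well plates, 48-hour exposure. At the GI50, growth is halved.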 Active and inactive are the calls of the source. Rule as the data show it: active = GI50 up to about 1.1 µM and inactive = higher.

Key:
Experiment in all cases: growth of human tumour cells (NCI), 48 h
A498 = tested on: A498
HOP-62 = tested on: HOP-62
T47D = tested on: T47D
LOX IMVI = tested on: LOX IMVI
SF-268 = tested on: SF-268
SNB-75 = tested on: SNB-75
MDA-MB-435 = tested on: MDA-MB-435
UACC-257 = tested on: UACC-257
786-0 = tested on: 786-0
MDA-MB-231 = tested on: MDA-MB-231
Hs-578T = tested on: Hs-578T
HL-60 = tested on: HL-60
SK-MEL-28 = tested on: SK-MEL-28
RXF 393 = tested on: RXF 393
RPMI-8226 = tested on: RPMI-8226
Malme-3M = tested on: Malme-3M
OVCAR-3 = tested on: OVCAR-3
SN12C = tested on: SN12C
A549 = tested on: A549
HOP-92 = tested on: HOP-92

Measured: GI50

CC(=O)c1cn(-c2ccc(Cl)cc2)c(=O)c2c(N)n[nH]c12
inactive: A498 > 100 µM | HOP-62 > 100 µM | T47D > 100 µM | LOX IMVI 43 µM | SF-268 > 100 µM | SNB-75 > 100 µM | MDA-MB-435 > 100 µM | UACC-257 > 100 µM | 786-0 > 100 µM | MDA-MB-231 > 100 µM | Hs-578T > 100 µM | HL-60 > 100 µM | SK-MEL-28 > 100 µM | RXF 393 > 100 µM | RPMI-8226 > 100 µM

COc1cccc2c1OC(c1ccc(Cl)cc1)C([N+](=O)[O-])=C2 (centres undefined)
inactive: Malme-3M 1.87 µM | HOP-62 2.1 µM | T47D 2.34 µM | LOX IMVI 1.2 µM | SF-268 3.18 µM | OVCAR-3 2.54 µM | MDA-MB-435 2.42 µM | SN12C 2.35 µM | UACC-257 1.91 µM | 786-0 1.84 µM | MDA-MB-231 3.52 µM | Hs-578T 4.2 µM | HL-60 > 100 µM | A549 9.82 µM | SK-MEL-28 2.61 µM | RXF 393 1.64 µM | RPMI-8226 1.52 µM

NCCCN1CCN(CCCNc2ccc3nnn4c5ccccc5c(=O)c2c34)CC1
inactive: Malme-3M 18.8 µM | A498 18.6 µM | HOP-62 13.7 µM | T47D 30.2 µM | LOX IMVI 8.32 µM | SF-268 31.3 µM | SNB-75 17.7 µM | OVCAR-3 37.4 µM | MDA-MB-435 21.6 µM | SN12C 9.02 µM | UACC-257 28.2 µM | 786-0 9.06 µM | MDA-MB-231 13.1 µM | Hs-578T 27.4 µM | HL-60 8.59 µM | A549 28.2 µM | SK-MEL-28 > 100 µM | HOP-92 18.8 µM | RPMI-8226 21.8 µM

CCCCCCC(N)(CCCCCC)C(=O)Nn1c(C)ccc1C
inactive: Malme-3M > 100 µM | A498 > 100 µM | HOP-62 > 100 µM | T47D 13.6 µM | SF-268 16 µM | SNB-75 29.4 µM | OVCAR-3 > 100 µM | MDA-MB-435 > 100 µM | SN12C > 100 µM | UACC-257 36.4 µM | 786-0 28.6 µM | MDA-MB-231 88.3 µM | Hs-578T 18.8 µM | HL-60 5.36 µM | A549 11.4 µM | SK-MEL-28 > 100 µM | RXF 393 25.7 µM | RPMI-8226 13.6 µM

Cc1ccc(S(=O)(=O)NC2C(=O)c3ccccc3C(=O)C2n2ccnc2)cc1 (centres undefined)
inactive: HOP-62 > 100 µM | T47D 17.5 µM | LOX IMVI 12.2 µM | SF-268 > 100 µM | SNB-75 > 100 µM | OVCAR-3 42.5 µM | MDA-MB-435 17.9 µM | SN12C 15 µM | UACC-257 > 100 µM | 786-0 17.4 µM | MDA-MB-231 16 µM | Hs-578T > 100 µM | HL-60 18.6 µM | A549 > 100 µM | SK-MEL-28 > 100 µM | RXF 393 31.2 µM | HOP-92 35.8 µM | RPMI-8226 > 100 µM

Cc1[nH]c(=O)c2oc3cc4ccccc4cc3c2c1C(=O)O
inactive: Malme-3M > 10 µM | T47D > 10 µM | LOX IMVI > 10 µM | SF-268 > 10 µM | SNB-75 > 10 µM | OVCAR-3 > 10 µM | MDA-MB-435 > 10 µM | SN12C > 10 µM | UACC-257 > 10 µM | 786-0 > 10 µM | MDA-MB-231 > 10 µM | Hs-578T > 10 µM | HL-60 > 10 µM | A549 > 10 µM | RXF 393 > 10 µM | HOP-92 > 10 µM

CCOC(=O)[C@H]1C[C@@H](C(=O)c2ccccc2)N2N=C(c3ccc(Br)cc3)C=C[C@H]12
inactive: A498 > 100 µM | HOP-62 > 100 µM | T47D > 100 µM | LOX IMVI > 100 µM | SF-268 > 100 µM | SNB-75 > 100 µM | OVCAR-3 > 100 µM | MDA-MB-435 > 100 µM | SN12C > 100 µM | UACC-257 > 100 µM | 786-0 > 100 µM | MDA-MB-231 > 100 µM | Hs-578T > 100 µM | A549 > 100 µM | SK-MEL-28 > 100 µM | RXF 393 > 100 µM | RPMI-8226 > 100 µM

O=[N+]([O-])C(=C(Nc1cccc2cccnc12)Nc1cccc2cccnc12)C(Cl)=C(Cl)Cl
inactive: Malme-3M > 92.3 µM | A498 > 100 µM | HOP-62 > 100 µM | T47D 29.1 µM | LOX IMVI 50.4 µM | SF-268 42.9 µM | SNB-75 > 100 µM | OVCAR-3 27.3 µM | MDA-MB-435 36.6 µM | SN12C > 55.1 µM | 786-0 > 71.3 µM | MDA-MB-231 7.35 µM | Hs-578T > 21.7 µM | A549 > 79.8 µM | SK-MEL-28 > 56.9 µM | RXF 393 30 µM | RPMI-8226 23.6 µM

O=P(O)(O)c1ccc2c(c1)OCCOCCOCCOCCO2
inactive: Malme-3M > 100 µM | A498 > 100 µM | HOP-62 > 100 µM | T47D > 100 µM | LOX IMVI > 100 µM | SF-268 > 100 µM | SNB-75 > 100 µM | MDA-MB-435 > 100 µM | SN12C > 100 µM | UACC-257 > 100 µM | 786-0 > 100 µM | MDA-MB-231 > 100 µM | Hs-578T > 100 µM | HL-60 > 100 µM | A549 > 100 µM | SK-MEL-28 > 100 µM | RPMI-8226 > 100 µM

C=C1[C@H](OC(C)=O)[C@H]2[C@@H](OC(C)=O)[C@@H](C)C[C@]2(C)C(=O)[C@H](C)/C=C/C(C)(C)C(=O)[C@H](OCC(C)C)[C@H]1OC(C)=O
inactive: A498 > 25 µM | HOP-62 19.5 µM | T47D > 25 µM | LOX IMVI > 25 µM | SF-268 > 25 µM | SNB-75 > 25 µM | OVCAR-3 > 25 µM | MDA-MB-435 20.7 µM | SN12C > 25 µM | UACC-257 > 25 µM | 786-0 > 25 µM | MDA-MB-231 > 25 µM | Hs-578T > 25 µM | HL-60 7.57 µM | RXF 393 > 25 µM | HOP-92 > 25 µM

O=C(OC[C@H]1C[C@H]2C(=O)CCC[C@H]2O1)c1ccccc1
inactive: A498 > 100 µM | HOP-62 > 100 µM | T47D > 100 µM | LOX IMVI > 100 µM | SF-268 > 100 µM | SNB-75 > 100 µM | OVCAR-3 > 100 µM | MDA-MB-435 > 100 µM | SN12C > 100 µM | UACC-257 > 100 µM | 786-0 > 100 µM | MDA-MB-231 > 100 µM | Hs-578T > 100 µM | HL-60 > 100 µM | A549 > 100 µM | SK-MEL-28 > 100 µM | HOP-92 > 100 µM | RPMI-8226 > 100 µM

CC1(C)C2CCC1(CC(=O)O)C(Cl)C2 (centres undefined)
inactive: Malme-3M > 100 µM | A498 > 100 µM | HOP-62 > 100 µM | T47D > 100 µM | LOX IMVI > 100 µM | SF-268 > 100 µM | SNB-75 > 100 µM | OVCAR-3 > 100 µM | MDA-MB-435 > 100 µM | SN12C > 100 µM | UACC-257 > 100 µM | 786-0 > 100 µM | MDA-MB-231 > 100 µM | Hs-578T > 100 µM | HL-60 > 100 µM | A549 > 100 µM | SK-MEL-28 > 100 µM | RXF 393 > 100 µM | RPMI-8226 > 100 µM

CC1(C)C2CCC1C(=O)C(C=O)C2 (centres undefined)
inactive: Malme-3M > 100 µM | A498 > 100 µM | HOP-62 > 100 µM | T47D > 100 µM | LOX IMVI > 100 µM | SF-268 > 100 µM | SNB-75 79.1 µM | OVCAR-3 > 100 µM | MDA-MB-435 > 100 µM | SN12C > 100 µM | UACC-257 > 100 µM | 786-0 > 100 µM | MDA-MB-231 > 100 µM | Hs-578T > 100 µM | HL-60 57.3 µM | A549 > 100 µM | SK-MEL-28 > 100 µM | RXF 393 > 100 µM | RPMI-8226 > 100 µM

CCOC(=O)C(NC(=O)c1ccccc1)(c1ccc(S(=O)(=O)Nc2onc(C)c2C)cc1)C(F)(F)F (centres undefined)
inactive: Malme-3M > 100 µM | HOP-62 > 100 µM | T47D > 100 µM | LOX IMVI > 100 µM | SF-268 > 100 µM | SNB-75 > 100 µM | OVCAR-3 > 100 µM | MDA-MB-435 > 100 µM | SN12C > 100 µM | UACC-257 > 100 µM | 786-0 > 100 µM | MDA-MB-231 > 100 µM | Hs-578T > 100 µM | HL-60 > 100 µM | A549 > 100 µM | SK-MEL-28 > 100 µM | RXF 393 > 100 µM | HOP-92 > 100 µM | RPMI-8226 > 100 µM

CC(=O)OC1CC2(C)C(OC(C)=O)CC1C2(C)C (centres undefined)
inactive: Malme-3M > 100 µM | HOP-62 > 100 µM | T47D > 100 µM | LOX IMVI > 100 µM | SF-268 > 100 µM | SNB-75 > 100 µM | OVCAR-3 > 100 µM | MDA-MB-435 > 100 µM | SN12C > 100 µM | UACC-257 > 100 µM | 786-0 > 100 µM | MDA-MB-231 > 100 µM | Hs-578T > 100 µM | HL-60 > 100 µM | A549 > 100 µM | SK-MEL-28 > 100 µM | RXF 393 > 100 µM | HOP-92 > 100 µM | RPMI-8226 > 100 µM
